Data reported in ChEMBL document CHEMBL1138676, “Liver-selective glucocorticoid antagonists: a novel treatment for type 2 diabetes” (J Med Chem, 2004).

Key:
Glucocorticoid receptor [1] = target: T1, Glucocorticoid receptor (Homo sapiens, UniProt P04150); assay: Inhibition of glucocorticoid receptor dependent alkaline phosphatase activity; format: functional
T1 sequence (P04150 whole entry): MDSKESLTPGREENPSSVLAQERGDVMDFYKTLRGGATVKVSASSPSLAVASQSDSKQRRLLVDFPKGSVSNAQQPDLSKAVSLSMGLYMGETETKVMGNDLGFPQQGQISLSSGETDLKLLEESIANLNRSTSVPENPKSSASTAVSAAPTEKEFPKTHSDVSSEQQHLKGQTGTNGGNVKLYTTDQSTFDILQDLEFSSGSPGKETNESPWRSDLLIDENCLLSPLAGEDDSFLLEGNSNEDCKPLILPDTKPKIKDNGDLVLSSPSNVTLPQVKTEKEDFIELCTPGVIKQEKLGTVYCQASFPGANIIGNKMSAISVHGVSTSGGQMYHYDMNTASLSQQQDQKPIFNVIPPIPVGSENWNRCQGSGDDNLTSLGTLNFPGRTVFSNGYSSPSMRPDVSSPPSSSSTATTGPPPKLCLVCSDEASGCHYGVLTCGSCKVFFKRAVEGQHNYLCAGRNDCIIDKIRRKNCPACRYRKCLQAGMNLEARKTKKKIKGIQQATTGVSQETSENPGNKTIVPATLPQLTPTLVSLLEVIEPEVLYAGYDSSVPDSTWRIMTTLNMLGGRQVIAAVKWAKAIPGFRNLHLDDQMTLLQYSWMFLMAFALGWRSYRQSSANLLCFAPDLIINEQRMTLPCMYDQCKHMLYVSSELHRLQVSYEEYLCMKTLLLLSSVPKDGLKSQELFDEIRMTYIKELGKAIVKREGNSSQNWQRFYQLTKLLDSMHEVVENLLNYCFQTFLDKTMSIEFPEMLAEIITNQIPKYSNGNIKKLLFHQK

Glucocorticoid receptor [2] = target: T1, Glucocorticoid receptor; assay: Inhibition of human glucocorticoid receptor
[3] = target: Glucocorticoid receptor (Rattus norvegicus) (UniProt P06536); assay: Inhibition of glucocorticoid receptor mediated tyrosine amino transferase activity
Chain of Glucocorticoid receptor (Rattus norvegicus) (P06536 whole entry, looked up): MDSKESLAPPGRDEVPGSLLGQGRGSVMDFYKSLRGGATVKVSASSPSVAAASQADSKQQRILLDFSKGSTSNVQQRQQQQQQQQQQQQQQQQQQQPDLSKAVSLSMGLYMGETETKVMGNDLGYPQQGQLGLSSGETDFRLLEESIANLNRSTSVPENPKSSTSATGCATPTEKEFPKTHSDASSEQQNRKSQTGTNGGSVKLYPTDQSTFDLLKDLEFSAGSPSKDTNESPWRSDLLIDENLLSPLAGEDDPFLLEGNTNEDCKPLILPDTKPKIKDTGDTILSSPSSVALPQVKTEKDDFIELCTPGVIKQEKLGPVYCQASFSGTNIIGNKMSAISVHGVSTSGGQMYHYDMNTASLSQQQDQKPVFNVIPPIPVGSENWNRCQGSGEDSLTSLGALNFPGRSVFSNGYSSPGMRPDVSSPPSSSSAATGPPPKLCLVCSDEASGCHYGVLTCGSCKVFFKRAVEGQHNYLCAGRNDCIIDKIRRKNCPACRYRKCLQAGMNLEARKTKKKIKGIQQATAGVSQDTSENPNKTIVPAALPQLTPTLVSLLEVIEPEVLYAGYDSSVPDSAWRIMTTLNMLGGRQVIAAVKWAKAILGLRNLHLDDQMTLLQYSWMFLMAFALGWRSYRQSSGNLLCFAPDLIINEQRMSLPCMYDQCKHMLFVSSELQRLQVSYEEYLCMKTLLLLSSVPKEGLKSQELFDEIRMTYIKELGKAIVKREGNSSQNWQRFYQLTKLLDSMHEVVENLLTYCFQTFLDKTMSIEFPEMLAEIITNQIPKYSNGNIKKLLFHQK

[4] = target: Glucocorticoid receptor (Rattus norvegicus) (UniProt P06536); assay: Inhibition of glucocorticoid receptor mediated tyrosine aminotransferase activity; set-up: concentration or dose not given beside the values; settings: concentration not given here
[5] = Inhibitory activity against rat lymphocytes; set-up: concentration or dose not given beside the values
Androgen receptor = target: T2, Androgen receptor (Homo sapiens, UniProt P10275)
T2 sequence (P10275 whole entry): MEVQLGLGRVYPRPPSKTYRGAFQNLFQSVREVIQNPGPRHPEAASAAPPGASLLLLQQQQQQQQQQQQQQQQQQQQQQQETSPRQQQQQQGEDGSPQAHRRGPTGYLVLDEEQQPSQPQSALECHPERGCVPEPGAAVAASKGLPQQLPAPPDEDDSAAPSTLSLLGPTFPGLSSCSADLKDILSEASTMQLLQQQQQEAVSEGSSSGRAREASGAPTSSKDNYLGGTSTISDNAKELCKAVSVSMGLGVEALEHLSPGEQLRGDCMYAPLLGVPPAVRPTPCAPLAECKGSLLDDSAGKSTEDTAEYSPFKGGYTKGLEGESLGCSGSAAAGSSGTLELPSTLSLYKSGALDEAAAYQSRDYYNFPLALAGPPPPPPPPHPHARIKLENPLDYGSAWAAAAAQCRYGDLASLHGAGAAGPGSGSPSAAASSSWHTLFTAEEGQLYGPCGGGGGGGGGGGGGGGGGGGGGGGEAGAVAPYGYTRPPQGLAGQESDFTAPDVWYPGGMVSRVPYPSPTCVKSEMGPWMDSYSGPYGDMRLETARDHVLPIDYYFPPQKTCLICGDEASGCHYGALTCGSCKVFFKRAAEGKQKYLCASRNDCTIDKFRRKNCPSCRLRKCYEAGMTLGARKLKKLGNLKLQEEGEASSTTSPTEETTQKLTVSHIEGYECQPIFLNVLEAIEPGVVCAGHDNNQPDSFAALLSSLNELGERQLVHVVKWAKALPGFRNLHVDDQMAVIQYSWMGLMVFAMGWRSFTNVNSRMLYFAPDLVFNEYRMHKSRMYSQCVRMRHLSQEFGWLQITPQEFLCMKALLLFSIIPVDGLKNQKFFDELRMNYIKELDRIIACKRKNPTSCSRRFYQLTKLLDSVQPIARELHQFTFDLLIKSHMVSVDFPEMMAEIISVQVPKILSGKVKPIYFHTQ
Description: Inhibition of human androgen receptor

Progesterone receptor = target: T3, Progesterone receptor (Homo sapiens, UniProt P06401); assay: Inhibition of human progesterone receptor
T3 sequence (P06401 whole entry): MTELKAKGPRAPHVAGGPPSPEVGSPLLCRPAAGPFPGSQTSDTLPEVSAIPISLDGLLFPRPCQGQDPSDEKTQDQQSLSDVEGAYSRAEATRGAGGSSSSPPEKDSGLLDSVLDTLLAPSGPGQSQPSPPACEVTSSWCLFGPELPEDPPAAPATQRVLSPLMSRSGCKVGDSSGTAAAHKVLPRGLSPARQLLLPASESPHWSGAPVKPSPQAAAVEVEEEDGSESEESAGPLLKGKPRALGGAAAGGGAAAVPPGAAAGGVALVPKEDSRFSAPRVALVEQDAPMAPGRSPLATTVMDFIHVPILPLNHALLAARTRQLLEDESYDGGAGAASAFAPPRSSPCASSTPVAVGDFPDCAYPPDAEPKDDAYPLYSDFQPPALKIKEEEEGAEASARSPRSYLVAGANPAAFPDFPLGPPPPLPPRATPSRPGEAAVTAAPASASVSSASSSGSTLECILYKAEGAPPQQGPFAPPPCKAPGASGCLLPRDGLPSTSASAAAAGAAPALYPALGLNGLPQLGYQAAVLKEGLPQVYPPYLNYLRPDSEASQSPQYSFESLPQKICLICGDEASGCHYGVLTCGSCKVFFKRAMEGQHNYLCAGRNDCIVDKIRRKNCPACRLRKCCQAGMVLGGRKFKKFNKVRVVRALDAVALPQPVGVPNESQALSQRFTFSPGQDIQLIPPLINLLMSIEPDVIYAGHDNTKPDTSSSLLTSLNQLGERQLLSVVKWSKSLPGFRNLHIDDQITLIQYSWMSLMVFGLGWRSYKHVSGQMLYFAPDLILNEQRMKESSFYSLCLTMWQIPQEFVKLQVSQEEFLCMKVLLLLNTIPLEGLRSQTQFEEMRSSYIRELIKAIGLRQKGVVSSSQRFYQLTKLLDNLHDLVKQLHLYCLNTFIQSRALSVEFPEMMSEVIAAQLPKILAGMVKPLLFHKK

[6] = target: T4, Mineralocorticoid receptor (Homo sapiens, UniProt P08235)
T4 sequence (P08235 whole entry): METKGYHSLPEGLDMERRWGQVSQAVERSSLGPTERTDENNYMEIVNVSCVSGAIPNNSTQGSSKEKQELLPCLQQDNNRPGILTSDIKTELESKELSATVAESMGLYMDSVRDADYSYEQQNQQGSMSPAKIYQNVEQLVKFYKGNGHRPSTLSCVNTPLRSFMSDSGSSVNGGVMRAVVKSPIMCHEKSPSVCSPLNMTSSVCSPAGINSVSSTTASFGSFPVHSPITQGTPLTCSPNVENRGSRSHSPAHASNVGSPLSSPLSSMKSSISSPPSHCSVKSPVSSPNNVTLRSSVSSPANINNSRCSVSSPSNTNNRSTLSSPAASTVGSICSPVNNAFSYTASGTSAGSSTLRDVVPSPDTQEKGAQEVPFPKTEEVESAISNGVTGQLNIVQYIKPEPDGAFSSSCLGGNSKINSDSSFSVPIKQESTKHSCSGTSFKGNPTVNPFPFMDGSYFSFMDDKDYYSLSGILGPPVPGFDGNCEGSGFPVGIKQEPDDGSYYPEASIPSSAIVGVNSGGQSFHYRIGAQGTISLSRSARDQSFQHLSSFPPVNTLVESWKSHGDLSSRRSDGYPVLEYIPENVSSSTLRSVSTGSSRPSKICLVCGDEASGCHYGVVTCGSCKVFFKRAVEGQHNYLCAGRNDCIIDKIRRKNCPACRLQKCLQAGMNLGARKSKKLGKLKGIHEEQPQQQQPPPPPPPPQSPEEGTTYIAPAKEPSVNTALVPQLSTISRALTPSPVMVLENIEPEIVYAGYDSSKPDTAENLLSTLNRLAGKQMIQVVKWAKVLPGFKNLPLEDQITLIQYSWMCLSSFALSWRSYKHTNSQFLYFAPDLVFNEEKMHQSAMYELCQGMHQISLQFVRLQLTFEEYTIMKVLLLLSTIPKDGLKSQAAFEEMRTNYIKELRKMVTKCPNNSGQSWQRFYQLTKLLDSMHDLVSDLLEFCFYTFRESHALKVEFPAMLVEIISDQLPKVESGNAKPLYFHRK
Description: Inhibition of human Mineralocorticoid receptor

Row | SMILES | Ki (Glucocorticoid receptor [1]) | Ki (Glucocorticoid receptor [2]) | Ki [3] | inhibition [4] | Inhibition [5] | Ki (Androgen receptor) | Ki (Progesterone receptor) | Ki [6]
1 | C#C[C@]1(O)CC[C@H]2[C@@H]3CCC4=CC(=O)CCC4=C3[C@@H](c3ccc(N(C)CCOC4CC[C@@]5(C)[C@H](CC[C@@H]6[C@@H]5CC[C@]5(C)[C@@H]([C@H](C)CCC(=O)O)CC[C@@H]65)C4)cc3)C[C@@]21C (stereo partly drawn) | 2.7 nM | 0.22 nM | – | – | – | – | – | –
2 | C#C[C@]1(O)CC[C@H]2[C@@H]3CCC4=CC(=O)CCC4=C3[C@@H](c3ccc(N(C)C(=O)CNC(=O)O[C@H]4C[C@H]5[C@@H]([C@H](O)C[C@@H]6C[C@H](O)CC[C@@]65C)[C@@H]5CC[C@H]([C@H](C)CCC(=O)O)[C@@]45C)cc3)C[C@@]21C | 100 nM | 6.5 nM | 500 nM | – | – | – | – | –
3 | C#C[C@]1(O)CC[C@H]2[C@@H]3CCC4=CC(=O)CCC4=C3[C@@H](c3ccc(N(C)CCOC4CC[C@@]5(C)[C@@H](C4)C[C@@H](O)[C@@H]4[C@@H]5C[C@H](O)[C@]5(C)[C@@H]([C@H](C)CCC(=O)O)CC[C@@H]45)cc3)C[C@@]21C (stereo in doubt; form 1) | – | – | – | 49% | – | – | – | –
4 | C#C[C@]1(O)CC[C@H]2[C@@H]3CCC4=CC(=O)CCC4=C3[C@@H](c3ccc(N(C)CCOC4CC[C@@]5(C)[C@H](CC[C@@H]6[C@@H]5C[C@H](O)[C@]5(C)[C@@H]([C@H](C)CCC(=O)O)CC[C@@H]65)C4)cc3)C[C@@]21C (stereo partly drawn) | 0.38 nM | 0.16 nM | – | 69% | 22% | – | – | –
5 | C#C[C@]1(O)CC[C@H]2[C@@H]3CCC4=CC(=O)CCC4=C3[C@@H](c3ccc(N(C)CCOCCO[C@@H]4CC[C@@]5(C)[C@@H](C4)C[C@@H](O)[C@@H]4[C@@H]5C[C@H](O)[C@]5(C)[C@@H]([C@H](C)CCC(=O)O)CC[C@@H]45)cc3)C[C@@]21C | 12 nM | 0.21 nM | 90 nM | 66% | -2% | 4.8 nM | 1.7 nM | 170 nM
6 | CC#C[C@]1(O)CC[C@H]2[C@@H]3CCC4=CC(=O)CC[C@]4(Cc4ccc(CCCO[C@H]5CC[C@@]6(C)[C@@H](C5)C[C@@H](O)[C@@H]5[C@@H]6C[C@H](O)[C@]6(C)[C@@H]([C@H](C)CCC(=O)O)CC[C@@H]56)cc4)C3=CC[C@@]21C | – | – | – | 5% | -16% | – | – | –
7 | C#C[C@]1(O)CC[C@H]2[C@@H]3CCC4=CC(=O)CCC4=C3[C@@H](c3ccc(N(C)CCC[C@@]4(O)CC[C@@]5(C)[C@H](C[C@@H](O)[C@@H]6[C@@H]5C[C@H](O)[C@]5(C)[C@@H]([C@H](C)CCC(=O)O)CC[C@@H]65)C4)cc3)C[C@@]21C | 4.3 nM | 0.11 nM | – | 6% | 0% | – | – | –
8 | C#C[C@]1(O)CC[C@H]2[C@@H]3CCC4=CC(=O)CCC4=C3[C@@H](c3ccc(N(C)CCOC4CC[C@@]5(C)[C@@H](C4)C[C@@H](O)[C@@H]4[C@@H]5C[C@H](O)[C@]5(C)[C@@H]([C@H](C)CCC(=O)O)CC[C@@H]45)cc3)C[C@@]21C (stereo in doubt; form 2) | – | – | – | 72% | – | – | – | –
9 | CC#C[C@]1(O)CC[C@H]2[C@@H]3CCC4=CC(=O)CCC4=C3[C@@H](c3ccc(N(C)CCO[C@H]4CC[C@@]5(C)[C@@H](C4)C[C@@H](O)[C@@H]4[C@@H]5C[C@H](O)[C@]5(C)[C@@H]([C@H](C)CCC(=O)NCCS(=O)(=O)O)CC[C@@H]45)cc3)C[C@@]21C | – | – | – | – | -6% | – | – | –
10 | C#C[C@]1(O)CC[C@H]2[C@@H]3CCC4=CC(=O)CCC4=C3[C@@H](c3ccc(N(C)CCOC4CC[C@@]5(C)[C@@H](C4)C[C@@H](O)[C@@H]4[C@@H]5CC[C@]5(C)[C@@H]([C@H](C)CCC(=O)O)CC[C@@H]45)cc3)C[C@@]21C (stereo partly drawn) | 0.76 nM | 0.18 nM | – | – | – | – | – | –
11 | C#C[C@]1(O)CC[C@H]2[C@@H]3CCC4=CC(=O)CCC4=C3[C@@H](c3ccc(N(C)CCNC(=O)O[C@@H]4C[C@@H]5CC(O)CC[C@]5(C)[C@H]5C[C@H](O)[C@]6(C)[C@@H]([C@H](C)CCC(=O)O)CC[C@H]6[C@H]45)cc3)C[C@@]21C (stereo partly drawn) | 37 nM | 1.2 nM | 730 nM | – | – | 18 nM | 4.6 nM | –
